Reference: ChEMBL document CHEMBL2203055, “From α4β2 Nicotinic Ligands to the Discovery of σ1 Receptor Ligands: Pharmacophore Analysis and Rational Design” (ACS Med Chem Lett, 2012)
pKi: −log10 of the molar value.

Columns and labels:
[1] = target: Sodium-dependent noradrenaline transporter (Homo sapiens, UniProt P23975); experiment: Displacement of [3H]nisoxetine from human recombinant NET after 1.5 hrs by microbeta scintillation counting analysis
[2] = target: 5-hydroxytryptamine receptor 6 (Homo sapiens, UniProt P50406); experiment: Displacement of [3H]LSD from human recombinant 5-HT6 receptor after 1.5 hrs by microbeta scintillation counting analysis
[3] = target: Histamine H3 receptor (Homo sapiens) (UniProt Q9Y5N1); experiment: Displacement of [3H]alpha-methylhistamine from human recombinant histamine H3 receptor at 10 uM after 1.5 hrs by microbeta scintillation counting analysis
[4] = target: T1, Histamine H2 receptor (Homo sapiens, UniProt P25021); experiment: Displacement of [3H]tiotidine from human recombinant histamine H2 receptor at 10 uM after 1.5 hrs by microbeta scintillation counting analysis
T1 sequence (P25021 whole entry): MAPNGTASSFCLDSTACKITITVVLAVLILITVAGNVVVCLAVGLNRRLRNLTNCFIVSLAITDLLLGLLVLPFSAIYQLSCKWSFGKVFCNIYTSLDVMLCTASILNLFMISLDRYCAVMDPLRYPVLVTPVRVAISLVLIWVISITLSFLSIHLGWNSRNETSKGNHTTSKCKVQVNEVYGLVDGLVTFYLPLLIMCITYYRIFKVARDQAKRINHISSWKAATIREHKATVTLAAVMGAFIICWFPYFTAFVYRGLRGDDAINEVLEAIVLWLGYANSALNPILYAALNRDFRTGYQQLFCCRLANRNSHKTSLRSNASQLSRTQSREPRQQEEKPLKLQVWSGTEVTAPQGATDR

[5] = target: T2, Histamine H1 receptor (Homo sapiens, UniProt P35367); experiment: Displacement of [3H]pyrilamine from human recombinant histamine H1 receptor at 10 uM after 1.5 hrs by microbeta scintillation counting analysis
T2 sequence (P35367 whole entry): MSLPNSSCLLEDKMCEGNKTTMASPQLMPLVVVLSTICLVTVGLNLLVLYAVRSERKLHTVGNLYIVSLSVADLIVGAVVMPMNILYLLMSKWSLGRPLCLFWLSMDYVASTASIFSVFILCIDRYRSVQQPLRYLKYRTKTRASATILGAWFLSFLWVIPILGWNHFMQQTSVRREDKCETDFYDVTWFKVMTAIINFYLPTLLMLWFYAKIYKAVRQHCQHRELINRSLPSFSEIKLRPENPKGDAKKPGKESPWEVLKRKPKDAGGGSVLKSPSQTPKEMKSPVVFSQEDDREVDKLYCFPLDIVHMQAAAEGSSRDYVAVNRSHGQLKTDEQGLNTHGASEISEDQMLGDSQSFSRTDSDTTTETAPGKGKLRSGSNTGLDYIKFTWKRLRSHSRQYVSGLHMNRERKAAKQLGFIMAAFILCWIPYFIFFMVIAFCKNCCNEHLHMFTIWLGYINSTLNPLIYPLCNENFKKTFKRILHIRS

[6] = target: Muscarinic acetylcholine receptor M4 (Homo sapiens) (UniProt P08173); experiment: Displacement of [3H]QNB from human recombinant muscarinic M4 receptor at 10 uM after 1.5 hrs by microbeta scintillation counting analysis
[7] = target: Beta-3 adrenergic receptor (Homo sapiens) (UniProt P13945); experiment: Displacement of [125I]Iodopindolol from beta 3 adrenergic receptor at 10 uM after 1.5 hrs by microbeta scintillation counting analysis
[8] = target: Alpha-1D adrenergic receptor (Homo sapiens) (UniProt P25100); experiment: Inhibitory activity against alpha 1D adrenergic receptor at 10 uM
Alpha-1D adrenergic receptor (Homo sapiens), sequence (P25100 whole entry): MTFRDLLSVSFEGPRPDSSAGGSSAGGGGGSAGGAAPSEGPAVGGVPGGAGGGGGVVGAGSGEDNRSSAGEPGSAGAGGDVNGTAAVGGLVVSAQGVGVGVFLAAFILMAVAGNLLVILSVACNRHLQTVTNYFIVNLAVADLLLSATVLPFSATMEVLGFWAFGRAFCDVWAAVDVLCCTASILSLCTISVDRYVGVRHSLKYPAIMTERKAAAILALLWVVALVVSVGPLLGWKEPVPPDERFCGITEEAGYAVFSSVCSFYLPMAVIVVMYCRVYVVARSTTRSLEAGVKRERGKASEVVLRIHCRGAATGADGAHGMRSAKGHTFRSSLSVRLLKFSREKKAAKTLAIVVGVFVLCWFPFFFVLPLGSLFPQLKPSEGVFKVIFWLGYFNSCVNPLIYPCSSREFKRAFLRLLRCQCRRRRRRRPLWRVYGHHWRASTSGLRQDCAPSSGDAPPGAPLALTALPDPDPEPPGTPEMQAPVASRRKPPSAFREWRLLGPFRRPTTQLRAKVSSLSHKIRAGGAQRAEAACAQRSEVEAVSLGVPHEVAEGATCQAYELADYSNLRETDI

[9] = target: Alpha-1A adrenergic receptor (Homo sapiens) (UniProt P35348); experiment: Displacement of [3H]prazosin from alpha 1A adrenergic receptor at 10 uM after 1 hr by microbeta scintillation counting analysis
Alpha-1A adrenergic receptor (Homo sapiens), sequence (P35348 whole entry): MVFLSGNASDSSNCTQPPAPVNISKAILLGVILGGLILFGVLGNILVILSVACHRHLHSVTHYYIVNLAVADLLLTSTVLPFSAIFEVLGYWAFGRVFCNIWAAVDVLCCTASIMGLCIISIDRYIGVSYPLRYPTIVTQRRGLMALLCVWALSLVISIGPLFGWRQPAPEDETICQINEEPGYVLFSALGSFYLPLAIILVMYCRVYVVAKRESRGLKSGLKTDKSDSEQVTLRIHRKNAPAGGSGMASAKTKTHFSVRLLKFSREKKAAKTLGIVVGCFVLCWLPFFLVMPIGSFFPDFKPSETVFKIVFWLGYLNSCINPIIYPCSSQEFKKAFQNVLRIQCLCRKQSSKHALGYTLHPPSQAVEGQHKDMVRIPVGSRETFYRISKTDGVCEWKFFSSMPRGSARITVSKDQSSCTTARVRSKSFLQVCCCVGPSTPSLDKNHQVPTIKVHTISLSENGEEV

[10] = target: Sodium-dependent dopamine transporter (Homo sapiens, UniProt Q01959); experiment: Displacement of [3H]WIN35428 from human recombinant DAT at 10 uM after 1.5 hrs by microbeta scintillation counting analysis
Sodium-dependent dopamine transporter, sequence (Q01959 whole entry): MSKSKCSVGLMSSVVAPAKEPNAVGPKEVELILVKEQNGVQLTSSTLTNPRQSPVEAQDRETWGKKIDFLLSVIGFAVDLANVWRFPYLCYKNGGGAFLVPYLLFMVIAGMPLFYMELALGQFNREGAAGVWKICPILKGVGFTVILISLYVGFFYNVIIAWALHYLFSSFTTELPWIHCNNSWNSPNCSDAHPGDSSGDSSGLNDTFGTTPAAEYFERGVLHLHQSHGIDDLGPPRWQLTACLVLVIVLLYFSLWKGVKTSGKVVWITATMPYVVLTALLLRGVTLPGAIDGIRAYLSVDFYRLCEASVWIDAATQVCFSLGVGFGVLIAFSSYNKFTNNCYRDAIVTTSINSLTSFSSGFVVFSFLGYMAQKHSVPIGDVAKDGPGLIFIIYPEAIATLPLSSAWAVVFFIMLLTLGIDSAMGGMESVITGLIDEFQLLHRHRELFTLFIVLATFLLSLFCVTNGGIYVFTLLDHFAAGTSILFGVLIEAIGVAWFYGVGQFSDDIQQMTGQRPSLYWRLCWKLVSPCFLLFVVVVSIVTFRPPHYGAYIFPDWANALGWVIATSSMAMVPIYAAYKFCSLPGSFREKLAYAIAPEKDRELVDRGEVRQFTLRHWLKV

[11] = organism: Rattus norvegicus; experiment: Inhibitory activity against benzodiazepine receptor in rat brain at 10 uM; format: tissue-based
[12] = target: D(1B) dopamine receptor (Homo sapiens) (UniProt P21918); experiment: Displacement of [3H]SCH23390 from human recombinant D5 receptor at 10 uM after 1.5 hrs by microbeta scintillation counting analysis
[13] = target: D(3) dopamine receptor (Homo sapiens) (UniProt P35462); experiment: Displacement of [3H]N-methylspiperone from D3 receptor at 10 uM after 1.5 hrs by microbeta scintillation counting analysis
D(3) dopamine receptor (Homo sapiens), sequence (P35462 whole entry): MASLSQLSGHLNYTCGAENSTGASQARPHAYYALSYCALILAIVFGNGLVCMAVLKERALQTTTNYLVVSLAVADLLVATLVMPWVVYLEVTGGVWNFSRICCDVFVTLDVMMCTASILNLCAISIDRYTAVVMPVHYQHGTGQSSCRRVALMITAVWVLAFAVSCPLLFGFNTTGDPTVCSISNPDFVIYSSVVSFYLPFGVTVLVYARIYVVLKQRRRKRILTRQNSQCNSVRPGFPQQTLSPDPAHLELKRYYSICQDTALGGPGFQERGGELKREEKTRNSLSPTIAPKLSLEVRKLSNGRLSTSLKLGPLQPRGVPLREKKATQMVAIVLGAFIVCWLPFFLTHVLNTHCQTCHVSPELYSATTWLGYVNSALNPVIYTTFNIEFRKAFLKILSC

[14] = target: 5-hydroxytryptamine receptor 3A (Homo sapiens) (UniProt P46098); experiment: Displacement of [3H]LY-278584 from human recombinant 5-HT3 receptor at 10 uM after 1.5 hrs by microbeta scintillation counting analysis
5-hydroxytryptamine receptor 3A (Homo sapiens), sequence (P46098 whole entry): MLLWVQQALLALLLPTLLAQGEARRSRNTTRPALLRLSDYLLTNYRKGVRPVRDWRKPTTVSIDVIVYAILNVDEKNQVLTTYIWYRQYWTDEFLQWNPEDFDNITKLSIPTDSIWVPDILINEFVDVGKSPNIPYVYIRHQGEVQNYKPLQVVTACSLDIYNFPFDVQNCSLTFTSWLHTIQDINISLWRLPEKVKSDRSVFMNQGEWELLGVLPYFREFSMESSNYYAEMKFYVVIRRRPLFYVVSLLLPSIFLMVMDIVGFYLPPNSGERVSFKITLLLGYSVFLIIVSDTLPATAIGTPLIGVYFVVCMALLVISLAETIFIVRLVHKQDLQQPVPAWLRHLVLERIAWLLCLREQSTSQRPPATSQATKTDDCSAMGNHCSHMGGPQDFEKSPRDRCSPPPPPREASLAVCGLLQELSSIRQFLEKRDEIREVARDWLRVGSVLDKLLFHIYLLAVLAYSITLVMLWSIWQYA

[15] = target: 5-hydroxytryptamine receptor 2A (Homo sapiens, UniProt P28223); experiment: Displacement of [3H]ketanserin from human recombinant 5-HT2A receptor at 10 uM after 1.5 hrs by microbeta scintillation counting analysis
5-hydroxytryptamine receptor 2A, sequence (P28223 whole entry): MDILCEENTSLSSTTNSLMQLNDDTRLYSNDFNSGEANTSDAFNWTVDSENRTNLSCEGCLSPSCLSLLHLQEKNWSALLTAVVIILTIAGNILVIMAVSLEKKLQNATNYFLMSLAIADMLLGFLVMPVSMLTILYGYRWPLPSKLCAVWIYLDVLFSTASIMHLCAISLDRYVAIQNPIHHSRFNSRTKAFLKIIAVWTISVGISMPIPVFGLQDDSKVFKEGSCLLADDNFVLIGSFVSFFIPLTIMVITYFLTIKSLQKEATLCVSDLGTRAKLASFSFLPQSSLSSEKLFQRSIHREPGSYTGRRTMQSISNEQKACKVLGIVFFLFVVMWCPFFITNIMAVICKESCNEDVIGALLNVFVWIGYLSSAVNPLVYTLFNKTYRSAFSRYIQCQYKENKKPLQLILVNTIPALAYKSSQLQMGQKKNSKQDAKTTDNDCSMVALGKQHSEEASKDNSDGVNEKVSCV

[16] = target: 5-hydroxytryptamine receptor 1A (Homo sapiens) (UniProt P08908); experiment: Displacement of [3H]-8-OH-DPAT from human recombinant 5-HT1A receptor at 10 uM after 1.5 hrs by microbeta scintillation counting analysis
5-hydroxytryptamine receptor 1A (Homo sapiens), sequence (P08908 whole entry): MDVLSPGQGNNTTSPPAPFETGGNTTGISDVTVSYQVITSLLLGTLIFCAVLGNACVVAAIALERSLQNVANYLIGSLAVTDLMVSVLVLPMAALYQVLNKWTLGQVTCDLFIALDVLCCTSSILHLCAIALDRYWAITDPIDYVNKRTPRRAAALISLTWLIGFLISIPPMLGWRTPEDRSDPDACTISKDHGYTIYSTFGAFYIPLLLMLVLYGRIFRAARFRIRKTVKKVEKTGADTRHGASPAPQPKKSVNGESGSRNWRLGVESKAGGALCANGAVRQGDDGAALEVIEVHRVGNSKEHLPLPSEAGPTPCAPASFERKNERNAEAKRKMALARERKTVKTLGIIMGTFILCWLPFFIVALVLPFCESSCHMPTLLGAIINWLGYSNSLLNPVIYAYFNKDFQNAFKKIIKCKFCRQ

[17] = target: Neuronal acetylcholine receptor; alpha4/beta4 (Homo sapiens) (UniProt P30926+P43681); experiment: Displacement of [3H]epibatidine from alpha4beta4 nAChR at 10 uM after 4 hrs by liquid scintillation counting analysis; format: protein-complex assay
[18] = target: Neuronal acetylcholine receptor; alpha4/beta2 (Rattus norvegicus) (UniProt P09483+P12390); experiment: Displacement of [3H]epibatidine from alpha4beta2* nAChR in rat forebrain at 10 uM after 4 hrs by liquid scintillation counting analysis
[19] = target: Neuronal acetylcholine receptor; alpha4/beta2 (Homo sapiens) (UniProt P17787+P43681); experiment: Displacement of [3H]epibatidine from alpha4beta2 nAChR at 10 uM after 4 hrs by liquid scintillation counting analysis; format: protein-complex assay
[20] = target: Neuronal acetylcholine receptor; alpha3/beta4 (Homo sapiens) (UniProt P30926+P32297); experiment: Displacement of [3H]epibatidine from alpha3beta4 nAChR at 10 uM after 4 hrs by liquid scintillation counting analysis; format: protein-complex assay
[21] = target: Neuronal acetylcholine receptor; alpha3/beta2 (Homo sapiens) (UniProt P17787+P32297); experiment: Displacement of [3H]epibatidine from alpha3beta2 nAChR at 10 uM after 4 hrs by liquid scintillation counting analysis; format: protein-complex assay
[22] = target: Neuronal acetylcholine receptor; alpha2/beta4 (Homo sapiens) (UniProt P30926+Q15822); experiment: Displacement of [3H]epibatidine from alpha2beta4 nAChR at 10 uM after 4 hrs by liquid scintillation counting analysis; format: protein-complex assay
[23] = target: Neuronal acetylcholine receptor; alpha2/beta2 (Homo sapiens) (UniProt P17787+Q15822); experiment: Displacement of [3H]epibatidine from alpha2beta2 nAChR at 10 uM after 4 hrs by liquid scintillation counting analysis; format: protein-complex assay
[24] = Selectivity ratio of Ki for human recombinant NET to Ki for sigma 1 receptor in rat brain membrane; format: cell membranes
[25] = Selectivity ratio of Ki for human recombinant DAT to Ki for sigma 1 receptor in rat brain membrane; format: cell membranes
[26] = target: T1, Histamine H2 receptor; experiment: Displacement of [3H]tiotidine from human recombinant histamine H2 receptor after 1.5 hrs by microbeta scintillation counting analysis
[27] = target: T2, Histamine H1 receptor; experiment: Displacement of [3H]pyrilamine from human recombinant histamine H1 receptor after 1.5 hrs by microbeta scintillation counting analysis
[28] = target: Beta-2 adrenergic receptor (Homo sapiens, UniProt P07550); experiment: Displacement of [125I]Iodopindolol from beta 2 adrenergic receptor after 1.5 hrs by microbeta scintillation counting analysis
[29] = target: 5-hydroxytryptamine receptor 2B (Homo sapiens, UniProt P41595); experiment: Displacement of [3H]LSD from human recombinant 5-HT2B receptor after 1.5 hrs by microbeta scintillation counting analysis

Sodium-dependent noradrenaline transporter, sequence (P23975 whole entry): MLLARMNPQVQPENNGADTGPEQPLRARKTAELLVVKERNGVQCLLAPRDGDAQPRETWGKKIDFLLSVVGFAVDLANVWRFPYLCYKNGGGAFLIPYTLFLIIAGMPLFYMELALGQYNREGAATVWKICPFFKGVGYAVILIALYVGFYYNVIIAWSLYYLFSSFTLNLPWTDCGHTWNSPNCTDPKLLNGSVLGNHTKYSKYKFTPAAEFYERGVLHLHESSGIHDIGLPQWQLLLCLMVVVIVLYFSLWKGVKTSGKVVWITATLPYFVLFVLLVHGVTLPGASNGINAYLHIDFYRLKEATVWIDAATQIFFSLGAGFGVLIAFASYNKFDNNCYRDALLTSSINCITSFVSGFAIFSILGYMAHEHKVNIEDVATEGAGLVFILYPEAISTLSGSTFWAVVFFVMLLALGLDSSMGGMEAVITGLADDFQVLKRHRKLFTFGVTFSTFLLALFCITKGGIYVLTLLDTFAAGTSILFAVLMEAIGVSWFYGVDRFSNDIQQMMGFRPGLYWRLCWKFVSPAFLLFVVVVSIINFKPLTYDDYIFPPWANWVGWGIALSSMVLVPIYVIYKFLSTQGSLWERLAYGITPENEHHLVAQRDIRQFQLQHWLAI

`c1ccc(OCc2cc(OC[C@@H]3CCN3)no2)cc1` gave a pKi [1] of 6.72, a pKi [2] of under 5.00 and an Efficacy [3] of 4.7%. The Efficacy [4] was 40.9%, the Efficacy [5] was 49.2% and the Efficacy [6] was 35.1%. The Efficacy [7] was -1.5%, the Efficacy [8] was 22.4% and the Efficacy [9] was 17.5%. For the same compound, the Efficacy [10] was 91.8%, the Efficacy [11] was 23.5% and the Efficacy [12] was 4.9%. The Efficacy [13] was 12.9%, the Efficacy [14] was -0.1% and the Efficacy [15] was 77.9%. The Efficacy [16] was 26.3%.
Work on `c1ccc(OCc2cc(OC[C@@H]3CCCN3)no2)cc1` yielded an Activity [17] of under 50%, an Activity [18] of under 50% and an Activity [19] of under 50%. For the same compound, the Activity [20] was under 50%, the Activity [21] was under 50% and the Activity [22] was under 50%. The Activity [23] was under 50%, the Ratio Ki [24] was 50 and the Ratio Ki [25] was 90. The pKi [1] was 6.69, the pKi [26] was 5.29 and the pKi [27] was under 5.00. For the same compound, the pKi [28] was under 5.00, the pKi [29] was 5.29 and the Efficacy [3] was -4.9%. The Efficacy [4] was 57.2%, the Efficacy [5] was 55% and the Efficacy [6] was 33.6%. The Efficacy [7] was 7.2%, the Efficacy [8] was 25.2% and the Efficacy [9] was 21%. For the same compound, the Efficacy [10] was 59.4%, the Efficacy [11] was 27.1% and the Efficacy [12] was 36.5%. For the same compound, the Efficacy [13] was 35.9%, the Efficacy [14] was 7% and the Efficacy [15] was 68%. For the same compound, the Efficacy [16] was 34.4%.
